Ends that are not written are not given here.
Experiments:
small intestinal crypts = assay: Surviving small intestinal crypts after 13Gy total body X-irradiation; assay type: in vivo, mice; details: analyzed four days following irradiation
Description: Twenty four 8-10 week old C57/B6 male mice randomized into three groups of each eight animals. Animals received PP[2-36] (0.1 mg/kg) s.c. twice daily for three days either prior or post radiation. Controls received vehicle both prior and post radiation.
Group 1 (pretreatment): PP[2-36] (0.1 mg/kg) twice daily on day −3, −2, −1; radiation on day 0; vehicle on day 0, +1, +2, +3. Group 2 (post treatment): Vehicle twice daily on day −3, −2, −1; radiation on day 0; PP[2-36] (0.1 mg/kg twice daily on day 0, +1, +2, +3. Group 3 (control): Vehicle twice daily on day −3, −2, −1; radiation on day 0; vehicle twice daily on day 0, +1, +2, +3. All animals were irradiated (day 0) to a single dose of 13Gy total body X-irradiation. Irradiation was performed using a Pantak HF320 X-ray set (Agfa NDT Ltd, Reading, UK). The machine was operated at 300 kV, 10 mA. The X-ray tube was fitted with additional filtration to give a radiation quality of 2.3 mm Cu half-value layer (HVL). Mice were restrained in a jig, positioned at a distance of 700 mm from the focus of the X-ray tube. Irradiation was delivered at a dose rate of 75.5 cGy/min. […] For each animal ten intestinal circumferences were analyzed—a circumference is equivalent to a given length of intestine and therefore a convenient baseline unit of length. The number of surviving crypts per circumference was scored and the average per group determined. […]

[1] = test system: small intestinal crypt cells; assay: Intestinal crypt cell proliferation (BrdU incorporation, cell positional scoring); assay type: in vivo, mice; details: 12 hours after dose
Description: 3 Groups of 8 male 8-10 weeks old C57/B6 mice were treated with group 1: Vehicle, group 2:PP(2-36) 0,1 mg/kg single injection s.c., group 3: PP(2-36) 1,0 mg/kg single injection s.c. Animals were euthanized 12 hours following the single injection of either dose. Vehicle was used as control. Prior to euthanasia all animals were given BrdU (Bromodeoxyuridine) i.p.—a marker for cell proliferation. The small intestine and colon were then removed and fixed in Carnoy's solution. From the Carnoy's fixed small intestinal material, paraffin blocks were generated and sectioned. Slides were immunolabelled to reveal the BrdU incorporation and analyzed on a cell positional basis (i.e. location of the individual cell in the hierarchy of cells in the crypt) to identify any induced proliferative changes (BrdU incorporation and mitotic counts). Fifty half crypts per mouse were scored on a cell positional basis, generating 400 frequency scores per group of 8 animals from which the means were generated and effects analyzed.

hPP2-36 (PLEPVYPGDNATPEQMAQYAADLRRYINMLTRPRY-NH2; listed as Homo sapiens) [PP[2-36]]
increase in number of surviving crypts compared to vehicle control (small intestinal crypts; post treatment 0.1 mg/kg s.c. twice daily for four days post irradiation, non-significant p>0.05): 47%
increase in number of surviving intestine crypts compared to vehicle control (small intestinal crypts; pretreatment 0.1 mg/kg s.c. twice daily for three days prior irradiation, p<0.05): two
level of proliferation in the small intestinal crypts ([1]; 0,1 mg/kg single injection s.c.): increased proliferation at cell positions 6-13
level of proliferation in the small intestinal crypts ([1]; 1 mg/kg single injection s.c.): stimulation was evident throughout the proliferative zone

Reference: patent publication US20110251126A1, “INTESTINAL TREATMENT” (priority 2008, published 2011)
